From patent US4387105A, “Methods of treating atherosclerosis with dialkylureas and dialkylthioureas” (priority 1982, dated 1983)

What follows are molecules tested against T1, fatty acyl CoA:cholesterol acyl transferase (ACAT) (Rattus norvegicus, UniProt O70536) (assay: Inhibition of ACAT in rat adrenal microsomal supernatant (14C-oleoyl CoA, cholesteryl ester counted)). Settings: vs control without compound.
T1 construct: The supernatant, containing the microsomal fraction, served as the source of the cholesterol-esterifying enzyme; from tissue; host or cells: rat adrenals (1000 x g supernatant containing the microsomal fraction)
T1 sequence (O70536 1-545): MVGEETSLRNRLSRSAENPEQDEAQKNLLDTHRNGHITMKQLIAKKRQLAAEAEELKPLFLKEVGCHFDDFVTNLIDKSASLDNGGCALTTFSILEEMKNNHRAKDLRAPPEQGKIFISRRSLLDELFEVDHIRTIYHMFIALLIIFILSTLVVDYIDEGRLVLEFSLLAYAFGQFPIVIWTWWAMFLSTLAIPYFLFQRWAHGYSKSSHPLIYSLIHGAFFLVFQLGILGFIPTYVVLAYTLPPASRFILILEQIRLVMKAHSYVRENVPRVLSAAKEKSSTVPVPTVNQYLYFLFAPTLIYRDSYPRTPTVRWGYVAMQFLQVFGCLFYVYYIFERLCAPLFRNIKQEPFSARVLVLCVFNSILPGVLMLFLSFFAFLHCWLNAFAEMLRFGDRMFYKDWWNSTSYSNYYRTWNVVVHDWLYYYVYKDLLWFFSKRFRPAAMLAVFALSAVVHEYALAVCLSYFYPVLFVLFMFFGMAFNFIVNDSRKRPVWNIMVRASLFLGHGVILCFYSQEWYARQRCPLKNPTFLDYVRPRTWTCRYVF
Format: biochemical
Set-up: dose or concentration left out as unconfirmed
Experimental: The compounds of the present invention were assayed for two types of biological activity related to their potential use as antiatherosclerotic agents. Compounds were tested in vitro for the ability to inhibit the enzyme fatty acyl CoA:cholesterol acyl transferase (ACAT) and in vivo for serum hypolipidemic activity as measured by their ability to inhibit lipid absorption in rats. The compounds were tested for their ability to inhibit ACAT according to the following procedure:
Rat adrenals were homogenized in 0.2 M monobasic potassium phosphate buffer, pH 7.4, and centrifuged at 1000 times gravity for 15 minutes at 5° C. The supernatant, containing the microsomal fraction, served as the source of the cholesterol-esterifying enzyme, fatty acyl CoA:cholesterol acyl transferase (ACAT). A mixture comprising 50 parts of adrenal supernatant, 10 parts of albumin (BSA) (50 mg./ml.), 3 parts of test compound (final concentration […].) and 500 parts of buffer was preincubated at 37° C. for 10 minutes. After treatment with 20 parts of oleoyl CoA(^14 C-[…]) the mixture was incubated at 37° C. for 10 minutes. A control mixture, omitting the test compound, was prepared and treated in the same manner. The lipids from the incubation mixture were extracted into an organic solvent and separated by thin-layer chromatography. The cholesteryl ester fraction was counted in a scintillation counter. This procedure is a modification of that described by Hashimoto, et al., Life Scie., 12 (Part II), 1-12 (1973).

Row | % Inhibition [%] | Molecule
1 | 78.1 | CCC(C)N(C(=O)Nc1ccc(C)cc1C)C(C)CC (stereo not drawn) [1,1-Di-(sec-butyl)-3-(2,4-dimethylphenyl)urea]
2 | 94.5 | CCCCN(CCCC)C(=O)Nc1ccc(C)c(NC(=O)N(CCCC)CCCC)c1 [1,1-di-(n-butyl)-3-[(3,3-dibutyl)urea-4-methylphenyl]urea]
3 | 88.0 | CCCCN(CCCC)C(=O)Nc1ccc(Cl)cc1C [1,1-di-(n-butyl)-3-(4-chloro-2-methylphenyl)urea]
4 | 49.2 | CCCCN(CCCC)C(=O)Nc1ccc(C)c(C)c1 [1,1-Di-(n-butyl)-3-(3,4-dimethylphenyl)urea]
5 | 58.7 | CCCCN(CCCC)C(=O)Nc1ccc(OC)cc1 [1,1-di-(n-butyl)-3-(4-methoxyphenyl)urea, 1,1-Di-(n-butyl)-3-(4-methoxyphenyl)urea]
6 | 78.4 | CCCCN(CCCC)C(=O)Nc1cccc(C)c1 [1,1-di-(n-butyl)-3-(3-methylphenyl)urea, 1,1-Di-(n-butyl)-3-(3-methylphenyl)urea]
7 | 26.3 | CCCCCCCCCCCCN(CCCCCCCCCCCC)C(=O)Nc1ccc(C)cc1C [1,1-Di-(n-dodecyl)-3-(2,4-dimethylphenyl)urea]
8 | 70.0 | CCCCN(CCCC)C(=O)Nc1ccc(Cl)cc1Cl [1,1-Di-(n-butyl)-3-(2,4-dichlorophenyl)urea]
9 | 48.9 | CCCCCCCCCCCN(CCCCCCCCCCC)C(=O)Nc1ccc(C)cc1C [1,1-Di-(n-undecyl)-3-(2,4-dimethylphenyl)urea]
10 | 85.1 | 1,1-di-(n-butyl)-3-(2,3-dibenzophenyl)urea
11 | 35.4 | CC(C)CN(CC(C)C)C(=O)Nc1ccccc1Cl [1,1-di-(isobutyl)-3-(2-chlorophenyl)urea]
12 | 61.6 | CCCCN(CCCC)C(=O)Nc1cc(Cl)cc(Cl)c1Cl [1,1-Di-(n-butyl)-3-(2,3,5-trichlorophenyl)urea]
13 | 85.3 | CCCCN(CCCC)C(=O)Nc1c(C)cccc1C [1,1-Di-(n-butyl)-3-(2,6-dimethylphenyl)urea]
14 | 73.4 | CCCCN(CCCC)C(=O)Nc1c(C)cc(C)cc1C [1,1-Di-(n-butyl)-3-(2,4,6-trimethylphenyl)urea]
15 | 55.1 | CCCCN(CCCC)C(=O)Nc1ccc(C(C)=O)cc1 [1,1-di-(n-butyl)-3-(4-acetylphenyl)urea, 1,1-Di-(n-butyl)-3-(4-acetylphenyl)urea]
16 | 91.1 | CCCCCCCN(CCCCCCC)C(=O)Nc1ccc(C)cc1C [1,1-Di-(n-heptyl)-3-(2,4-dimethylphenyl)urea]
17 | 83.1 | CCCCN(CCCC)C(=O)Nc1ccc(I)cc1 [1,1-di-(n-butyl)-3-(4-iodophenyl)urea, 1,1-Di-(n-butyl)-3-(4-iodophenyl)urea]
18 | 79.9 | CCCCN(CCCC)C(=O)Nc1ccc(C)cc1 [1,1-di-(n-butyl)-3-(4-methylphenyl)urea, 1,1-Di-(n-butyl)-3-(4-methylphenyl)urea]
19 | 84.7 | CCCCN(CCCC)C(=O)Nc1cccc(SC)c1 [1,1-Di-(n-butyl)-3-(3-methylthiophenyl)urea]
20 | 94.3 | Cc1ccc(NC(=O)N(C2CCCCC2)C2CCCCC2)c(C)c1 [1,1-dicyclohexyl-3-(2,4-dimethylphenyl)urea]
21 | 50.9 | CCCCN(CCCC)C(=O)Nc1cccc(C(C)=O)c1 [1,1-di-(n-butyl)-3-(3-acetylphenyl)urea, 1,1-Di-(n-butyl)-3-(3-acetylphenyl)urea]
22 | 94.7 | Cc1ccc(NC(=O)N(CC(C)C)CC(C)C)cc1NC(=O)N(CC(C)C)CC(C)C [1,1-di-(isobutyl)-3-[(3,3-diisobutyl)urea-4-methylphenyl]urea]

Row | Molecule | % Inhibition [%]
23 | Cc1ccc(NC(=O)N(C2CCCC2)C2CCCC2)c(C)c1 [1,1-Di-(cyclopentyl)-3-(2,4-dimethylphenyl)urea] | 90.4
24 | CCCCCCCCCN(CCCCCCCCC)C(=O)Nc1ccc(C)cc1C [1,1-Di-(n-nonyl)-3-(2,4-dimethylphenyl)urea] | 90.0
